What was measured:
[1] = Water uptake of Compound I (Karl Fischer coulometric analysis); format: physicochemical
Method: For the purposes of establishing material handling practices, Compound I was evaluated for water uptake in various controlled conditions. Compound I was exposed to 25° C./60% relative humidity and 40° C./75% relative humidity for up to one day. Approximately 200 mg of Compound I was accurately weighed into separate glass vials and placed uncapped in stability chambers. At various time points, the vials were removed, stoppered and crimped, and the water content for Compound I powder was determined by standard Karl Fischer coulometric analysis.

PTEN-P2 mouse cells = experiment: Orthotopic prostate cancer survival study, PTEN-P2 cells in Fox1/Nu mice; format: in vivo
Method: Orthotopic injection of PTEN-P2 and TRAMP-C2 for survival studies: Mice were anaesthetized and an incision was made through the skin and peritoneum. A total of 30,000 cells were suspended in Matrigel and slowly injected into the dorsal lobe of the prostate using a 30-gauge needle. Matrigel was used to prevent the leakage of cells out of the site of injection. A Q-tip was held over the injection site for 1 min to prevent bleeding and spill after removal of the needle. The abdominal wall was closed by surgical silk sutures.
Fox1/Nu or C57BL/6J mice were used as recipients for PTEN-P2 and TRAMP-C2 cells, respectively. Mice were surgically castrated 6 weeks later, when tumors were established, and Compound I treatment was initiated 4-5 days later. The number of days mice lived following treatment initiation was recorded for each animal. A few mice were found dead upon daily inspection, while others were euthanized in agreement with our IACUC regulations, including mice showing weight losses of more than 15% and mice showing signs of pain though posture and lack of grooming were euthanized.
An orthotopic model of prostate cancer in which 30,000 PTEN-P2 mouse cells were injected into the prostate of Fox1/Nu mice was used. Mice were castrated 5 weeks after the PTEN-P2 mouse cells were injected into the prostate, which allowed the tumors to become established. […] The number of days mice lived following treatment initiation was recorded for each animal.

## CC1=CC(=O)c2c(O)cccc2C1=O [Compound I, 5-hydroxy-2-methylnaphthalene-1,4-dione]
[1]; 25° C./60% RH, 0 hours
  Water content: 0.023%
[1]; 25° C./60% RH, 5 hours
  Water content: 0.026%
[1]; 25° C./60% RH, 24 hours
  Water content: 0.029%
[1]; 25° C./60% and 40° C./75% relative humidity, up to one day
  Water content of Compound I powder (in words): anhydrous
[1]; 40° C./75% RH, 0 hours
  Water content: 0.023%
[1]; 40° C./75% RH, 5 hours
  Water content: 0.027%
[1]; 40° C./75% RH, 24 hours
  Water content: 0.031%
[1]; at up to 75% relative humidity
  Sensitivity to water uptake: not sensitive to water uptake
5 mg/g
  Stability of formulations of Compound I in PEG: 50%
3 day, 4.6 mg/mL
  Stability of the formulation in Carrier A (sesame oil), Potency as Amount: 4.2 mg/mL
PTEN-P2 mouse cells; oral 1 mg/kg/day in Carrier A plus castration, p=0.01
  Survival, combination with castration vs castration alone: survived significantly longer
PTEN-P2 mouse cells; oral 1 mg/kg/day in Carrier A, p=0.118
  Survival, Compound I alone vs castration alone: not statistically different
PTEN-P2 mouse cells; oral formulation plus castration, p=0.042
  Survival, combination with castration vs untreated control: survived longer
PTEN-P2 mouse cells; p=0.296
  Survival, Compound I alone vs untreated control: not statistically different

Reference: patent publication US20180221306A1, “PHARMACEUTICAL COMPOSITIONS OF 5-HYDROXY-2-METHYLNAPHTHALENE-1,4-DIONE” (PellFiCure Pharmaceuticals, Inc., priority 2016, published 2018)
